# Source: ChEMBL document CHEMBL1125008 (J Med Chem, 1990)
# Key:
# [1] = target: T1, Serotonin 3 receptor (5HT3) (Mus musculus, UniProt Q9JHJ5+P23979); assay: (§1) The binding affinity was measured for 5-hydroxytryptamine 3 receptor on NG 108-15 cell line of mouse neuroblastoma-glioma cells in presence of [3H]5 radioligand (in vitro); assay type: cell-based
# T1 sequence (Q9JHJ5 whole entry): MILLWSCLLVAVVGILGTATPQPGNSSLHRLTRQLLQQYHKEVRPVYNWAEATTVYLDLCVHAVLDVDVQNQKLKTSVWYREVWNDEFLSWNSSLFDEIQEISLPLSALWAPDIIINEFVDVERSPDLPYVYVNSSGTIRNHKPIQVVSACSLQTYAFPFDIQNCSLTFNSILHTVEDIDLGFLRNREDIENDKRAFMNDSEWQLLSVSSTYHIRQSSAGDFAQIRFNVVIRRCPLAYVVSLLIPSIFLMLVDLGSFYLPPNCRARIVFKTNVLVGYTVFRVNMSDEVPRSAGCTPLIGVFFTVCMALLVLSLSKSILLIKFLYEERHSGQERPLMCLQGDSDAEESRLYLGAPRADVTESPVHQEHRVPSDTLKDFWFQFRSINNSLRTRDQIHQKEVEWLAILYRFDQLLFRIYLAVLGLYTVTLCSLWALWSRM
# T1 sequence (P23979 whole entry): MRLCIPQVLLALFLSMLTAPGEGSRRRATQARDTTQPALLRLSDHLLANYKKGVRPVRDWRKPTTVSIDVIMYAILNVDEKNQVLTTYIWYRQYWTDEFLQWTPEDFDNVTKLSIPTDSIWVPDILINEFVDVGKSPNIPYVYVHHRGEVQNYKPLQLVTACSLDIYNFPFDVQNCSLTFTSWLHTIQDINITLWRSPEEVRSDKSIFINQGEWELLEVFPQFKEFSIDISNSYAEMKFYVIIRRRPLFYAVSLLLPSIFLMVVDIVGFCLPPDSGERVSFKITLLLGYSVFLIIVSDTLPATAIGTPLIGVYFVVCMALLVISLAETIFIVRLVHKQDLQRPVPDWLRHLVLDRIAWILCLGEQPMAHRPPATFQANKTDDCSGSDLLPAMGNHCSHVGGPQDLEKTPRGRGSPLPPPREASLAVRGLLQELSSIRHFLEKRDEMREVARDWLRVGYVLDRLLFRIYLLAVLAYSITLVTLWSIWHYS
# [2] = target: T2, Serotonin 3 receptor (5HT3) (Mus musculus) (UniProt Q9JHJ5+P23979); assay: as §1; assay type: cell-based; details: concentration not given here
# [3] = target: T2, Serotonin 3 receptor (5HT3) (Mus musculus); assay: Percent inhibition of [3H]5 binding to 5-hydroxytryptamine 3 receptor was evaluated by injection of compound (75 microCi/kg, […]) into the tail vein of mice (in vivo); assay type: organism-based
Structure (SMILES),Ki [1],inhibition [2],also measured
c1ccc2nc(N3CCNCC3)ccc2c1 [QUIPAZINE],8.67 nM,,
COc1ccccc1-c1csc(Cc2[nH]cnc2C)n1,,50%,
Cc1[nH]cnc1Cc1nc(-c2ccccc2F)cs1,,66%,
Cc1[nH]cnc1Cc1nc(-c2cccc3cccnc23)cs1,,,inhibition [3]: 54%
Cc1[nH]cnc1Cc1nc(-c2ccccc2)cs1,,53%,
CN1[C@@H]2CC[C@H]1C[C@@H](OC(=O)c1c[nH]c3ccccc13)C2 [TROPISETRON],3.8 nM,,
Cc1nccn1CC1CCc2c(c3ccccc3n2C)C1=O (stereo not drawn) [ONDANSETRON],12 nM,,
Cc1[nH]c2ccc(O)cc2c1CCN,1430 nM,,
